Literature values in patent US9107921B2, “Oral dosage forms for oxygen containing active agents and oxyl-containing polymers” (Spriaso LLC, priority 2012, dated 2015).
Where a name gives a salt, the structure may show the parent alone.

Tests used:
[1] = for plasma half-life: in vivo

Q: With `COc1ccc2c3c1O[C@H]1C(=O)CC[C@H]4[C@@H](C2)N(C)CC[C@]314` [Hydrocodone] as the compound, how does the plasma half-life [1] read?
A: 3.8 to 6 h

Q: Which results are given for `CN(C)CCC(c1ccc(Cl)cc1)c1ccccn1` (centres unmarked) [chlorpheniramine, Chlorpheniramine]?
A: time to peak plasma concentration ([1]; following oral administration): 2 to 3 h; time to 50% in vitro drug release (single-layer matrix tablet, HPMC polymer (Methocel K4M) to active ratio of about 1:1): about 3.5 hours

Q: Which plasma half-life [1] does the source give for `COc1ccc2c3c1O[C@H]1[C@@H](O)C=C[C@H]4[C@@H](C2)N(C)CC[C@@]341` [codeine, 3-methylmorphine] here?
A: 2.5 to 3 h

Q: Which “time to 50% drug release in vitro” value (matrix tablet, HPMC (Methocel K4M) to active agent ratio 1:0.3 by weight) does the source give for `CC(C)NCC(O)COc1cccc2ccccc12` (centres unmarked) [propranolol HCl] here?
A: about 4 hours
